Experimental data as given in PubChem BioAssay AID1963970 (Molecular Pharmacology Branch, DTP, NCI, 2024).

Test system: 931267-113-T-J1-PDC multicell spheroid viability
Assay: Anticancer human tumor 931267-113-T-J1-PDC patient-derived colon adenocarcinoma cell line growth inhibition [PI3K]
Details: for IC50: curve of first compound; for viability, T/C: stronger effect = lower value
Procedure, shortened: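 Spheroid viability read-out. Co-cultures contained the tumor line plus HUVEC and human MSCs. Each agent was paired with a PI3K inhibitor (inavolisib, alpelisib, duvelisib, copanlisib) across half-log dilutions starting at clinical Cmax, or at 10 microM when Cmax was unknown.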

[1] = second compound 0.00316 µM, first compound 0.0316 µM
[2] = second compound 0.00316 µM, first compound 0.1 µM
[3] = second compound 0.00316 µM, first compound 0.316 µM
[4] = second compound 0.00316 µM, first compound 1 µM
[5] = second compound 0.00316 µM, first compound 3.16 µM
[6] = second compound 0.00316 µM, first compound 10 µM
[7] = second compound 0.01 µM, first compound 0.0316 µM
[8] = second compound 0.01 µM, first compound 0.1 µM
[9] = second compound 0.01 µM, first compound 0.316 µM
[10] = second compound 0.01 µM, first compound 1 µM
[11] = second compound 0.01 µM, first compound 3.16 µM
[12] = second compound 0.01 µM, first compound 10 µM
[13] = second compound 0.0316 µM, first compound 0.0316 µM
[14] = second compound 0.0316 µM, first compound 0.1 µM
[15] = second compound 0.0316 µM, first compound 0.316 µM
[16] = second compound 0.0316 µM, first compound 1 µM
[17] = second compound 0.0316 µM, first compound 3.16 µM
[18] = second compound 0.0316 µM, first compound 10 µM
[19] = second compound 0.1 µM, first compound 0.0316 µM
[20] = second compound 0.1 µM, first compound 0.1 µM
[21] = second compound 0.1 µM, first compound 0.316 µM
[22] = second compound 0.1 µM, first compound 1 µM
[23] = second compound 0.1 µM, first compound 3.16 µM
[24] = second compound 0.1 µM, first compound 10 µM
[25] = second compound 0.316 µM, first compound 0.0316 µM
[26] = second compound 0.316 µM, first compound 0.1 µM
[27] = second compound 0.316 µM, first compound 0.316 µM
[28] = second compound 0.316 µM, first compound 1 µM
[29] = second compound 0.316 µM, first compound 3.16 µM
[30] = second compound 0.316 µM, first compound 10 µM
[31] = second compound 1 µM, first compound 0.0316 µM
[32] = second compound 1 µM, first compound 0.1 µM
[33] = second compound 1 µM, first compound 0.316 µM
[34] = second compound 1 µM, first compound 1 µM
[35] = second compound 1 µM, first compound 3.16 µM
[36] = second compound 1 µM, first compound 10 µM
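Further: viability read 7 days after compound addition.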

Compound: CC(Cn1ccc(-c2ccc(C#N)c(Cl)c2)n1)NC(=O)c1cc(C(C)O)[nH]n1 (centres undefined) + CC(Nc1ccc2c(c1)OCCn1cc(N3C(=O)OCC3C(F)F)nc1-2)C(N)=O
- IC50 (second compound 0.00316 µM): > 10 µM
- IC50 (second compound 0.01 µM): > 10 µM
- IC50 (second compound 0.0316 µM): > 10 µM
- IC50 (second compound 0.1 µM): > 10 µM
- IC50 (second compound 0.316 µM): > 10 µM
- IC50 (second compound 1 µM): > 10 µM
- viability, T/C [1]: 88.4%
- viability, T/C [2]: 101%
- viability, T/C [3]: 98.5%
- viability, T/C [4]: 110%
- viability, T/C [5]: 111%
- viability, T/C [6]: 101%
- viability, T/C [7]: 102%
- viability, T/C [8]: 103%
- viability, T/C [9]: 106%
- viability, T/C [10]: 115%
- viability, T/C [11]: 113%
- viability, T/C [12]: 110%
- viability, T/C [13]: 107%
- viability, T/C [14]: 106%
- viability, T/C [15]: 101%
- viability, T/C [16]: 89.8%
- viability, T/C [17]: 112%
- viability, T/C [18]: 91.5%
- viability, T/C [19]: 98.5%
- viability, T/C [20]: 98.8%
- viability, T/C [21]: 101%
- viability, T/C [22]: 94.8%
- viability, T/C [23]: 103%
- viability, T/C [24]: 79.8%
- viability, T/C [25]: 92.4%
- viability, T/C [26]: 90.5%
- viability, T/C [27]: 86.8%
- viability, T/C [28]: 80.2%
- viability, T/C [29]: 90.4%
- viability, T/C [30]: 72.8%
- viability, T/C [31]: 76.4%
- viability, T/C [32]: 76.8%
- viability, T/C [33]: 74.2%
- viability, T/C [34]: 74.8%
- viability, T/C [35]: 76.1%
- viability, T/C [36]: 59.2%

Compound: CC1(C)CCC(Nc2ncc(C(F)(F)F)c(-c3c[nH]c4c(P(C)(C)=O)c(C#N)ccc34)n2)CN1 (centres undefined) + CC(Nc1ccc2c(c1)OCCn1cc(N3C(=O)OCC3C(F)F)nc1-2)C(N)=O
- IC50 (second compound 0.00316 µM): > 10 µM
- IC50 (second compound 0.01 µM): > 10 µM
- IC50 (second compound 0.0316 µM): 8.54 µM
- IC50 (second compound 0.1 µM): > 10 µM
- IC50 (second compound 0.316 µM): 6.39 µM
- IC50 (second compound 1 µM): 4.8 µM
- viability, T/C [1]: 99.7%
- viability, T/C [2]: 88.6%
- viability, T/C [3]: 85.2%
- viability, T/C [4]: 71.8%
- viability, T/C [5]: 78.2%
- viability, T/C [6]: 49.5%
- viability, T/C [7]: 102%
- viability, T/C [8]: 89.2%
- viability, T/C [9]: 83.5%
- viability, T/C [10]: 74.6%
- viability, T/C [11]: 67.7%
- viability, T/C [12]: 49.8%
- viability, T/C [13]: 91.2%
- viability, T/C [14]: 88.2%
- viability, T/C [15]: 79.6%
- viability, T/C [16]: 71.5%
- viability, T/C [17]: 72.8%
- viability, T/C [18]: 45%
- viability, T/C [19]: 99.7%
- viability, T/C [20]: 90.5%
- viability, T/C [21]: 76.6%
- viability, T/C [22]: 74%
- viability, T/C [23]: 73.7%
- viability, T/C [24]: 46.2%
- viability, T/C [25]: 87%
- viability, T/C [26]: 79%
- viability, T/C [27]: 72.9%
- viability, T/C [28]: 74.1%
- viability, T/C [29]: 73.1%
- viability, T/C [30]: 36%
- viability, T/C [31]: 81.4%
- viability, T/C [32]: 75.4%
- viability, T/C [33]: 64.2%
- viability, T/C [34]: 65.2%
- viability, T/C [35]: 64.2%
- viability, T/C [36]: 34.6%
